Values after ≈ are worked out from the molar mass of the structure shown. Read-outs that look alike come from different tables or passages of the source. Where a SMILES comes first, the peptide text is derived from it. Where no end group is shown, it is not given here. [ ]: non-standard residue; d: D form. Orn = NCCC[C@H](N)C(=O)O; Dab = NCC[C@H](N)C(=O)O; Dap = NC[C@H](N)C(=O)O
System: Escherichia coli ATCC 25922
Assay type: cell-based
Procedure: The antibacterial activity of the Tritrp-derived peptides and other AMPs was assessed against E. coli ATCC 25922, as a representative of Gram-negative bacteria, incubated in Mueller-Hinton broth media (Table 2). […] Arg-to-Lys mutations were correlated with a decrease in activity for almost all peptides. […] The lack of sensitivity of the activity of the Tritrp3 peptide to the nature of the positively charged residues prompted a more detailed study of the structure-activity relationship. Tritrp7 and Tritrp8 are analogs of Tritrp3 where only a single Pro residue is mutated by Ala. These mutations are known to alter the 3D structure of the peptides when interacting with sodium dodecyl sulfate (SDS) micelles, specifically reducing the helicity of the original Tritrp3 peptide (Table 1).
The antibacterial activity for the peptides in this study against E. coli ATCC 25922 was determined by the broth microdilution method. Briefly, E. coli cells at 5 × 10^5 cfu/mL, obtained from a single colony culture, were incubated in Mueller Hinton broth (MHB) media (Sigma Aldrich, St. Louis, MO, USA) in the presence of two-fold dilution of peptides (0–256 µM) in 96-well polypropylene microtiter plates (Sigma Aldrich, St. Louis, MO, USA). The plates were incubated at 37 °C for 16 h, and the minimal inhibitory concentration was determined after incubation as the minimal peptide concentration at which cell growth was not observed.

[1] = E. coli ATCC 25922, Mueller-Hinton broth, 5 × 10^5 cfu/mL, 37 °C, 16 h, run in triplicate, range of all three experiments

| Compound | MIC (ATCC 25922, 16 h) | MIC [1] |
| --- | --- | --- |
| CC[C@H](C)[C@H](N)C(=O)N[C@@H](CC(C)C)C(=O)N1CCC[C@H]1C(=O)N[C@@H](Cc1c[nH]c2ccccc12)C(=O)N[C@@H](CCCCN)C(=O)N[C@@H](Cc1c[nH]c2ccccc12)C(=O)N1CCC[C@H]1C(=O)N[C@@H](Cc1c[nH]c2ccccc12)C(=O)N[C@@H](Cc1c[nH]c2ccccc12)C(=O)N1CCC[C@H]1C(=O)N[C@@H](Cc1c[nH]c2ccccc12)C(=O)N[C@@H](CCCNC(=N)N)C(=O)N[C@@H](CCCNC(=N)N)C(N)=O [Indolicidin, reference compound] | 8 µM (≈ 15.3 µg/mL) |  |
| CC(C)C[C@H](NC(=O)[C@H](Cc1ccccc1)NC(=O)[C@@H]1CCCN1C(=O)[C@H](Cc1c[nH]c2ccccc12)NC(=O)[C@H](Cc1c[nH]c2ccccc12)NC(=O)[C@H](Cc1c[nH]c2ccccc12)NC(=O)[C@@H]1CCCN1C(=O)[C@H](Cc1ccccc1)NC(=O)[C@H](CCNC(=N)N)NC(=O)[C@H](CCNC(=N)N)NC(=O)[C@@H](N)C(C)C)C(=O)N[C@@H](CCNC(=N)N)C(=O)N[C@@H](CCNC(=N)N)C(N)=O [Tritrp–Agb] | 4 µM (≈ 7.38 µg/mL) |  |
| CC(C)C[C@H](NC(=O)[C@H](Cc1ccccc1)NC(=O)[C@@H]1CCCN1C(=O)[C@H](Cc1c[nH]c2ccccc12)NC(=O)[C@H](Cc1c[nH]c2ccccc12)NC(=O)[C@H](Cc1c[nH]c2ccccc12)NC(=O)[C@@H]1CCCN1C(=O)[C@H](Cc1ccccc1)NC(=O)[C@H](CCCNC(=N)N)NC(=O)[C@H](CCCNC(=N)N)NC(=O)[C@@H](N)C(C)C)C(=O)N[C@@H](CCCNC(=N)N)C(=O)N[C@@H](CCCNC(=N)N)C(N)=O [Tritrp–Arg] | 2 to 4 µM |  |
| CC(C)C[C@H](NC(=O)[C@H](Cc1ccccc1)NC(=O)[C@@H]1CCCN1C(=O)[C@H](Cc1c[nH]c2ccccc12)NC(=O)[C@H](Cc1c[nH]c2ccccc12)NC(=O)[C@H](Cc1c[nH]c2ccccc12)NC(=O)[C@@H]1CCCN1C(=O)[C@H](Cc1ccccc1)NC(=O)[C@H](CCN)NC(=O)[C@H](CCN)NC(=O)[C@@H](N)C(C)C)C(=O)N[C@@H](CCN)C(=O)N[C@@H](CCN)C(N)=O [Tritrp–Dab] (H-V[Dab][Dab]FPWWWPFL[Dab][Dab]-NH2) | 4 to 8 µM |  |
| CC(C)C[C@H](NC(=O)[C@H](Cc1ccccc1)NC(=O)[C@@H]1CCCN1C(=O)[C@H](Cc1c[nH]c2ccccc12)NC(=O)[C@H](Cc1c[nH]c2ccccc12)NC(=O)[C@H](Cc1c[nH]c2ccccc12)NC(=O)[C@@H]1CCCN1C(=O)[C@H](Cc1ccccc1)NC(=O)[C@H](CN)NC(=O)[C@H](CN)NC(=O)[C@@H](N)C(C)C)C(=O)N[C@@H](CN)C(=O)N[C@@H](CN)C(N)=O [Tritrp–Dap] (H-V[Dap][Dap]FPWWWPFL[Dap][Dap]-NH2) | 4 µM (≈ 6.48 µg/mL) |  |
| CC(C)C[C@H](NC(=O)[C@H](Cc1ccccc1)NC(=O)[C@@H]1CCCN1C(=O)[C@H](Cc1c[nH]c2ccccc12)NC(=O)[C@H](Cc1c[nH]c2ccccc12)NC(=O)[C@H](Cc1c[nH]c2ccccc12)NC(=O)[C@@H]1CCCN1C(=O)[C@H](Cc1ccccc1)NC(=O)[C@H](CCCN)NC(=O)[C@H](CCCN)NC(=O)[C@@H](N)C(C)C)C(=O)N[C@@H](CCCN)C(=O)N[C@@H](CCCN)C(N)=O [Tritrp–Orn] (H-V[Orn][Orn]FPWWWPFL[Orn][Orn]-NH2) | 16 µM (≈ 27.7 µg/mL) |  |
| CC(C)C[C@H](NC(=O)[C@H](Cc1ccccc1)NC(=O)[C@@H]1CCCN1C(=O)[C@H](Cc1c[nH]c2ccccc12)NC(=O)[C@H](Cc1c[nH]c2ccccc12)NC(=O)[C@H](Cc1c[nH]c2ccccc12)NC(=O)[C@@H]1CCCN1C(=O)[C@H](Cc1ccccc1)NC(=O)[C@H](CCCCNC(=N)N)NC(=O)[C@H](CCCCNC(=N)N)NC(=O)[C@@H](N)C(C)C)C(=O)N[C@@H](CCCCNC(=N)N)C(=O)N[C@@H](CCCCNC(=N)N)C(N)=O [Tritrp–hArg] | 4 µM (≈ 7.83 µg/mL) |  |
| FPVTWKWWKWWKG-NH2 [PuroA–Lys, reference compound] |  | 8 µM |
| FPVTWRWWRWWRG-NH2 [PuroA–Arg] |  | 8 to 16 µM |
| GIGRWLHSARRFGRAFVGEIMNS [Magainin2-F5W–Arg] | 8 µM |  |
| ILPWKWPWWPWKK-NH2 [Indolicidin–Lys] | 16 µM |  |
| VKKFAWWWAFLKK-NH2 [Tritrp3–Lys] | 2 µM |  |
| VKKFAWWWPFLKK-NH2 [Tritrp7–Lys] | 32 µM |  |
| VKKFPWWWAFLKK-NH2 [Tritrp8–Lys] | 4 µM |  |
| VKKFPWWWPFLKK-NH2 [Tritrp–Lys] | 16 µM |  |
| VRRFAWWWAFLRR-NH2 [Tritrp3–Arg] | 2 µM |  |
| VRRFAWWWPFLRR-NH2 [Tritrp7–Arg] | 8 µM |  |
| VRRFPWWWAFLRR-NH2 [Tritrp8–Arg] | 2 to 4 µM |  |
